From patent US4242354A, “2-(2-Thenolythio)-propionylglycine: method for its preparation and pharmaceutical formulations containing said compound” (Mediolanum Farmaceutici S.r.L., priority 1978, dated 1980)

Legend:
[1] = test system: citric acid-induced experimental bronchitis; test: Experimental bronchitis due to citric acid in the guinea-pig; assay type: in vivo, spotted guinea-pigs, Morini strain; parameters: key to Microscopic Examination (Table 12), significance vs. controls (S) / Visualization of the bronchial tract, significance vs. controls (S) / Microscopic Examination (Table 14), significance vs. controls (S): h.s.: highly significant; Microscopic Examination score (Table 12; E, mean ± standard error) / Visualization of the bronchial tract score (E, mean ± standard error) / Microscopic Examination score (Table 14; E, mean ± standard error): scale not given here; details: 50 mg/kg; for Microscopic Examination score (Table 12; E, mean ± standard error): control 4.00 ± 0.25; for Microscopic Examination score (Table 14; E, mean ± standard error): control 3.00 ± 0.00; for Visualization of the bronchial tract score (E, mean ± standard error): control 2.83 ± 0.16
Experimental: Twenty-four spotted guinea-pigs, Morini strain, bodyweight 450 grams approximately, were used for the investigation, subdivided into 4 groups, each consisting of 6 animals, subjected to the following treatments:
Group 1: poisoning treatment with citric acid
The poisoning was made introducing the experimental animals into tight-sealed plexiglass cages containing a solution of 7.5 percent citric acid for 15 minutes daily, 6 days weekly, for 4 weeks.
The animals were sacrificed on the day after the last application, and the lungs were subjected to the same treatments and to the same assessments performed with the same scores already used in the case of the rat.

[2] = test system: SO2-induced experimental bronchitis; test: Experimental bronchitis in the rat (SO2 inhalation); assay type: in vivo, male rats, Sprague-Dawley strain; parameters: key to Macroscopic Examination, significance vs. controls (S) / Visualization of the bronchial tract, significance vs. controls (S) / Microscopic Examination, significance vs. controls (S): h.s.: highly significant; details: 50 mg/kg; for Visualization of the bronchial tract score (E, mean ± standard error): control 2.50 ± 0.26; for Microscopic Examination score (E, mean ± standard error): control 2.75 ± 0.16
Experimental: For the purpose 40 male rats, Sprague-Dawley strain, 320-370 grams, subdivided into 4 groups each consisting of 10 elements were subjected to the following treatments:
Group 1: poisoning treatment (SO2)
For the poisoning-induction the animals were subjected to a constant air flow containing SO2 at a 0.03 percent concentration. The poisoning treatment was given for 15 days subjecting the rats, 2 hours daily, to an inhalation of SO2 for 15-minute periods. […] The animals were killed on the day following the last inhalation.
The lungs were withdrawn together with the trachea, fixed in 10 percent formalin, and subjected to a macroscopic examination, dipped thereafter into the same fixing fluid for 24 hours, and thereafter for one hour in absolute ethanol.
The bronchial tree was thereafter evidenced with alcian blue; moreover, a subsequent staining was made with the Schiff's reagent in order to evidence the muchopolysaccharides.
Each lung was given the following arbitary score:
(1) Macroscopic Examination:
5=large hemorrhagic spots
(2) Visualization of the Bronchial Tree with Alcian Blue:
1=almost uniform staining
3=quite irregular staining.
(3) Bronchopulmonary Alterations at the Microscopic Examination: […]

[3] = test system: carbon tetrachloride poisoning; test: Protective activity in the carbon tetrachloride poisoning; assay type: in vivo, male rats (Sprague-Dawley)
Experimental: Fifty male rats (Sprague-Dawley, 180-200 grams bodyweight) were used for the investigation, subdivided into 5 groups: one group was given no treatment while the remaining 4 groups were poisoned for 7 consecutive days with CCl4 at the dosage of […] given subcutaneously.

bromobenzene poisoning = test: Protective activity in the bromobenzene poisoning; assay type: in vivo, male rats (Sprague-Dawley)
Experimental: Fifty male rats (Sprague-Dawley, 180-200 g bodyweight) were used for the investigation, subdivided into 5 groups, each consisting of 10 animals, given orally the following compounds
(1) 5 percent gum arabic in tap water
(2) 5 percent gum arabic in tap water
(3) 2-(2-thenoylthio)-propionylglycine--200 mg/kg
(4) 2-(2-thenoylthio)-propionylglycine--300 mg/kg
Seven days later, the animals of the groups 2-3-4-[…] were given bromobenzene subcutaneously (150 mg/rat) while the remaining group (control) was given an equivalent volume of saline. Still seven days later, 5 of the animals of each group were given Nembutal (25 mg/kg/intraperitoneally), and the sleeping time was calculated.
The remaining 5 animals of each group were given bromophthalein at the dose of 50 mg intravenously; thirty minutes later, the animals were sacrificed and both the present bromophthalein and SGPT (serum glutamic pyruvic transaminase) were established in the blood.

physchem = test: physchem
Experimental: The stability tests were carried out according to the Rogers' nonisothermic method suitably integrated by the evaluation of physical data, melting point, weight variation, and spectrophotometric assay. For each single compound, the tests were performed on a series of samples, with the weight of 100 milligrams, added for the wet tests with 1 ml of distilled water. […] The sample were kept in a thermostat at increasing temperatures, i.e. from 25° to 80° C. […] The temperature, programmed according to the Rogers' formula, resulted to be 40° C. at the end of the first hour, 50° C. at the end of the second hour, 57° C. at the end of the third hour, 63° C. at the end of the fourth hour, 69° C. at the end of the fifth hour, 73° C. at the end of the sixth hour, 77° C. at the end of the seventh hour and, as already specified, 80° C. at the end of the eighth hour.
In the case of the wet-treated samples, the final weight was only established on the samples No. 10 brought to dryness at 60° C. under vacuum after an 8-hour heating.

[4] = group 3, aerosol (so in the source)

CC(SC(=O)c1cccs1)C(=O)NCC(=O)O (centres unmarked) [compound (I), 2-(2-thenoylthio)-propionylglycine]
Microscopic Examination (Table 12), significance vs. controls (S) ([1]; Table 12, group 2, orally): h.s.
Microscopic Examination score (Table 12; E, mean ± standard error) ([1]; Table 12, group 2, orally): 2.00 ± 0.36
Microscopic Examination (Table 12), significance vs. controls (S) ([1]; Table 12, group 3, aerosol): h.s.
Microscopic Examination score (Table 12; E, mean ± standard error) ([1]; Table 12, group 3, aerosol): 2.33 ± 0.49
Microscopic Examination (Table 12), significance vs. controls (S) ([1]; Table 12, group 4, rectally): h.s.
Microscopic Examination score (Table 12; E, mean ± standard error) ([1]; Table 12, group 4, rectally): 1.83 ± 0.40
Microscopic Examination (Table 14), significance vs. controls (S) ([1]; Table 14, group 2, orally): h.s.
Microscopic Examination score (Table 14; E, mean ± standard error) ([1]; Table 14, group 2, orally): 0.83 ± 0.30
Microscopic Examination (Table 14), significance vs. controls (S) ([1]; Table 14, group 3, aerosol): h.s.
Microscopic Examination score (Table 14; E, mean ± standard error) ([1]; Table 14, group 3, aerosol): 1.00 ± 0.36
Microscopic Examination (Table 14), significance vs. controls (S) ([1]; Table 14, group 4, rectally): h.s.
Microscopic Examination score (Table 14; E, mean ± standard error) ([1]; Table 14, group 4, rectally): 0.66 ± 0.42
Visualization of the bronchial tract, significance vs. controls (S) ([1]; group 2, orally): h.s.
Visualization of the bronchial tract score (E, mean ± standard error) ([1]; group 2, orally): 1.16 ± 0.30
Visualization of the bronchial tract, significance vs. controls (S) ([1]; group 3, aerosol): h.s.
Visualization of the bronchial tract score (E, mean ± standard error) ([1]; group 3, aerosol): 1.00 ± 0.36
Visualization of the bronchial tract, significance vs. controls (S) ([1]; group 4, rectally): h.s.
Visualization of the bronchial tract score (E, mean ± standard error) ([1]; group 4, rectally): 1.00 ± 0.44
protective action, experimental bronchitis (citric acid) ([1]; guinea-pig): marked protective action
Macroscopic Examination, significance vs. controls (S) ([2]; group 2, aerosol): h.s.
Microscopic Examination, significance vs. controls (S) ([2]; group 2, aerosol): h.s.
Visualization of the bronchial tract, significance vs. controls (S) ([2]; group 2, aerosol): h.s.
Visualization of the bronchial tract score (E, mean ± standard error) ([2]; group 2, aerosol): 0.87 ± 0.29
Microscopic Examination score (E, mean ± standard error) ([2]; group 2, aerosol): 0.87 ± 0.29
Macroscopic Examination, significance vs. controls (S) [2, 4]: h.s.
Microscopic Examination, significance vs. controls (S) [2, 4]: h.s.
Visualization of the bronchial tract, significance vs. controls (S) [2, 4]: h.s.
Visualization of the bronchial tract score (E, mean ± standard error) [2, 4]: 0.87 ± 0.29
Microscopic Examination score (E, mean ± standard error) [2, 4]: 0.75 ± 0.31
Macroscopic Examination score (E, mean ± standard error) ([2]; group 3, aerosol (so in the source), control 4.00 ± 0.26): 1.12 ± 0.39
Macroscopic Examination, significance vs. controls (S) ([2]; group 4, subcutaneous): h.s.
Microscopic Examination, significance vs. controls (S) ([2]; group 4, subcutaneous): h.s.
Visualization of the bronchial tract, significance vs. controls (S) ([2]; group 4, subcutaneous): h.s.
Visualization of the bronchial tract score (E, mean ± standard error) ([2]; group 4, subcutaneous): 0.75 ± 0.31
Microscopic Examination score (E, mean ± standard error) ([2]; group 4, subcutaneous): 1.00 ± 0.26
protective action, experimental bronchitis (SO2) ([2]; rat): marked protective action
liver weight increase consequent to CCl4 ([3]; CCl4 0.5 ml/mg sc, 7 days, drugs intramuscularly, (I) 200 and 300 mg/kg, (II) 300 mg/kg): can prevent the liver weight increase
efficacy in comparison with 2-mercaptopropionylglycine ([3]; equivalent dosage, CCl4 poisoning, rat): statistically significant efficacy in preventing the liver weight increase as well as in reducing the liver fats levels
serum concentrations of SGPT (bromobenzene poisoning; oral, 200 and 300 mg/kg, bromobenzene-poisoned rat): significant reduction of the serum concentrations of SGPT
liver impairment induced by bromobenzene (bromobenzene poisoning; oral, 200 and 300 mg/kg, rat): able to reduce the liver impairment
sleeping time (Nembutal) (bromobenzene poisoning; oral, 200 and 300 mg/kg, Nembutal 25 mg/kg ip): statistically significant decrease of the sleeping time
rate of excretion of bromophthalein (bromobenzene poisoning; vs poisoned controls, bromophthalein 50 mg iv, 30 minutes): less evident
Content (physchem): 100.0%
E at 292 nm (physchem; as such): 0.438
remaining at 1.5 h (physchem; dry): 99.8%
remaining at 3 h (physchem; dry): 99.8%
remaining at 5.25 h (physchem; dry): 100%
remaining at 8 h (physchem; dry): 99.8%
E at 292 nm (physchem; sample 1, dry): 0.440
E at 292 nm (physchem; sample 2, dry): 0.435
E at 292 nm (physchem; sample 3, dry): 0.440
E at 292 nm (physchem; sample 4, dry): 0.440
E at 292 nm (physchem; sample 6, wet): 0.455
E at 292 nm (physchem; sample 7, wet): 0.450
E at 292 nm (physchem; sample 8, wet): 0.435
E at 292 nm (physchem; sample 9, wet): 0.412
